Data from PubChem BioAssay AID328 (DTP/NCI, 2004).
Several values for one entry are separate records, joined by “and”; a condition that tells them apart may be missing. Equal entries are not always repeated. Inconclusive results and toxic doses are left out. Starred links: 1 amine or outer side, 2 acyl side, 3 side chain; linkers in the order of their positions; H or OH if unused. Positions of bridges follow the written chain, without caps; N, C: chain ends. Non-standard residues stand in square brackets, D forms with d. Residues, ends and D or L forms follow the SMILES beside them. Chains are numbered I, II in the order given. Actinocin(9to1) = Cc1c2oc3c(C)ccc(C(=O)[*:1])c3nc-2c(C(=O)[*:2])c(N)c1=O; NMeV = CN[CH](C(=O)O)C(C)C; Sar = CNCC(=O)O

Tested on: BDF1 mice, P388 leukemia ip, median survival T/C
Experiment: NCI In Vivo Anticancer Drug Screen. Data for tumor model P388 Leukemia (intraperitoneal) in B6D2F1 (BDF1) mice
Settings: endpoint: median survival time, higher = longer survival
How it was run: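 Compound-treated tumour-bearing mice were compared with vehicle-treated controls. Survival was recorded, and the value is the treated-group measurement divided by the control-group measurement (T/C).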

[1] = dose: 100.0 mg/kg/injection, schedule: Q01DX009 (ip), vehicle: saline
[2] = dose: 100.0 mg/kg/injection, schedule: Q04DX003 (ip), vehicle: saline
[3] = dose: 200.0 mg/kg/injection, schedule: Q01DX009 (ip), vehicle: saline
[4] = dose: 200.0 mg/kg/injection, schedule: Q04DX003 (ip), vehicle: saline
[5] = dose: 400.0 mg/kg/injection, schedule: Q01DX009 (ip), vehicle: saline
[6] = dose: 100.0 mg/kg/injection, schedule: Q04DX003 (ip), vehicle: saline with Tween-80
[7] = dose: 200.0 mg/kg/injection, schedule: Q04DX003 (ip), vehicle: saline with Tween-80
[8] = dose: 6.25 mg/kg/injection, schedule: Q01DX009 (ip), vehicle: saline
[9] = dose: 12.5 mg/kg/injection, schedule: Q01DX009 (ip), vehicle: saline

NC(C/[N+]([O-])=N/O)C(=O)O (centres undefined)
T/C (dose: 15.6 mg/kg/injection, schedule: Q04DX003 (ip), vehicle: saline): 118 % of control
T/C (dose: 15.6 mg/kg/injection, schedule: Q04DX003 (ip), vehicle: water): 118 % of control
T/C (dose: 25.0 mg/kg/injection, schedule: Q01DX010 (ip), vehicle: other): 150 % of control
T/C (dose: 25.0 mg/kg/injection, schedule: Q01DX010 (ip), vehicle: saline): 122 % of control
T/C (dose: 31.3 mg/kg/injection, schedule: Q04DX003 (ip), vehicle: saline): 122 % of control
T/C (dose: 50.0 mg/kg/injection, schedule: Q01DX010 (ip), vehicle: other): 150 % of control
T/C (dose: 100.0 mg/kg/injection, schedule: Q01DX010 (ip), vehicle: other): 165 % of control
T/C (dose: 125.0 mg/kg/injection, schedule: Q04DX003 (ip), vehicle: water): 168 % of control
T/C (dose: 173.0 mg/kg/injection, schedule: Q04DX003 (ip), vehicle: sodium bicarbonate): 161 % of control and 171 % of control
T/C (dose: 200.0 mg/kg/injection, schedule: Q01DX010 (ip), vehicle: saline): 100 % of control
T/C (dose: 250.0 mg/kg/injection, schedule: Q04DX003 (ip), vehicle: saline): 172 % of control
T/C (dose: 250.0 mg/kg/injection, schedule: Q04DX003 (ip), vehicle: water): 181 % of control
T/C (dose: 288.0 mg/kg/injection, schedule: Q04DX003 (ip), vehicle: sodium bicarbonate): 161 % of control and 172 % of control
T/C (dose: 480.0 mg/kg/injection, schedule: Q04DX003 (ip), vehicle: sodium bicarbonate): 190 % of control and 192 % of control
T/C (dose: 500.0 mg/kg/injection, schedule: Q04DX003 (ip), vehicle: saline): 181 % of control
T/C (dose: 500.0 mg/kg/injection, schedule: Q04DX003 (ip), vehicle: water): 177 % of control
T/C (dose: 800.0 mg/kg/injection, schedule: Q04DX003 (ip), vehicle: sodium bicarbonate): 116 % of control

CCC(=O)O[C@H]1CC[C@H]2[C@@H]3C[C@H](C)C4=CC(=O)C=C[C@]4(C)[C@H]3C(=O)C[C@]12C
T/C (dose: 100.0 mg/kg/injection, schedule: Q01DX009 (ip), vehicle: saline with Tween-80): 100 % of control
T/C (dose: 200.0 mg/kg/injection, schedule: Q01DX009 (ip), vehicle: saline with Tween-80): 91 % of control
T/C (dose: 400.0 mg/kg/injection, schedule: Q01DX009 (ip), vehicle: saline with Tween-80): 95 % of control

NCC(O)CSc1ccc(Cl)c(Cl)c1 (centres undefined)
T/C (dose: 50.0 mg/kg/injection, schedule: Q04DX002 (ip), vehicle: saline with Tween-80): 98 % of control
T/C (dose: 100.0 mg/kg/injection, schedule: Q04DX002 (ip), vehicle: saline with Tween-80): 106 % of control

CCCCC1(CC)COC(C)(Cc2ccccc2)OC1 (centres undefined)
T/C [1]: 100 % of control
T/C [2]: 104 % of control
T/C [3]: 100 % of control
T/C [4]: 100 % of control
T/C [5]: 90 % of control
T/C (dose: 400.0 mg/kg/injection, schedule: Q04DX003 (ip), vehicle: saline): 104 % of control

COc1c(Br)cc(/C=C(/C)[N+](=O)[O-])cc1Br
T/C [6]: 114 % of control
T/C [7]: 160 % of control

CN(C)P(=O)(N(C)C)N1CC1
T/C (dose: 90.0 mg/kg/injection, schedule: Q04DX003 (ip), vehicle: saline): 192 % of control
T/C [2]: 157 % of control
T/C (dose: 135.0 mg/kg/injection, schedule: Q04DX003 (ip), vehicle: saline): 176 % of control
T/C [4]: 233 % of control and 211 % of control

CN1Cc2cc3cc(c2O)C[N+](C)(C)Cc2c(Cl)c(c(Cl)c(c2Cl)C[N+](C)(C)C3)C1
T/C [8]: 118 % of control
T/C (dose: 8.2 mg/kg/injection, schedule: Q01DX009 (ip), vehicle: saline): 108 % of control
T/C [9]: 108 % of control
T/C (dose: 25.0 mg/kg/injection, schedule: Q01DX001 (ip), vehicle: saline): 104 % of control
T/C (dose: 25.0 mg/kg/injection, schedule: Q01DX009 (ip), vehicle: saline): 109 % of control
T/C (dose: 50.0 mg/kg/injection, schedule: Q01DX001 (ip), vehicle: saline): 100 % of control
T/C (dose: 118.0 mg/kg/injection, schedule: Q01DX009 (ip), vehicle: saline): 112 % of control

Cc1ccc2c(Nc3ccc(NS(C)(=O)=O)cc3)c3ccccc3nc2c1C
T/C (dose: 1.78 mg/kg/injection, schedule: Q01DX009 (ip), vehicle: saline with Tween-80): 156 % of control
T/C (dose: 4.0 mg/kg/injection, schedule: Q01DX009 (ip), vehicle: saline with Tween-80): 167 % of control
T/C (dose: 5.56 mg/kg/injection, schedule: Q01DX009 (ip), vehicle: saline with Tween-80): 196 % of control
T/C (dose: 6.0 mg/kg/injection, schedule: Q01DX009 (ip), vehicle: saline with Tween-80): 187 % of control
T/C (dose: 6.25 mg/kg/injection, schedule: Q01DX009 (ip), vehicle: saline with Tween-80): 185 % of control
T/C (dose: 8.33 mg/kg/injection, schedule: Q01DX009 (ip), vehicle: saline with Tween-80): 186 % of control
T/C (dose: 8.8 mg/kg/injection, schedule: Q04DX003 (ip), vehicle: saline with Tween-80): 118 % of control
T/C (dose: 12.5 mg/kg/injection, schedule: Q01DX009 (ip), vehicle: saline with Tween-80): 233 % of control and 247 % of control
T/C (dose: 13.2 mg/kg/injection, schedule: Q04DX003 (ip), vehicle: saline with Tween-80): 154 % of control
T/C (dose: 18.7 mg/kg/injection, schedule: Q01DX009 (ip), vehicle: saline with Tween-80): 288 % of control
T/C (dose: 20.0 mg/kg/injection, schedule: Q01DX009 (ip), vehicle: other): 219 % of control
T/C (dose: 20.0 mg/kg/injection, schedule: Q04DX003 (ip), vehicle: saline with Tween-80): 168 % of control
T/C (dose: 22.0 mg/kg/injection, schedule: Q04DX003 (ip), vehicle: saline with Tween-80): 186 % of control
T/C (dose: 25.0 mg/kg/injection, schedule: Q01DX009 (ip), vehicle: saline with Tween-80): 114 % of control
T/C (dose: 30.0 mg/kg/injection, schedule: Q04DX003 (ip), vehicle: saline with Tween-80): 177 % of control
T/C (dose: 33.0 mg/kg/injection, schedule: Q04DX003 (ip), vehicle: saline with Tween-80): 227 % of control
T/C (dose: 50.0 mg/kg/injection, schedule: Q04DX003 (ip), vehicle: saline with Tween-80): 231 % of control
T/C (dose: 75.0 mg/kg/injection, schedule: Q04DX003 (ip), vehicle: saline with Tween-80): 218 % of control
T/C [6]: 259 % of control
T/C [7]: 272 % of control

CN[C@@H]1[C@H](O)[C@H](NC)[C@H]2O[C@@]3(O)C(=O)C[C@@H](C)O[C@H]3O[C@@H]2[C@H]1O
T/C [8]: 95 % of control
T/C [9]: 90 % of control
T/C [1]: 99 % of control
T/C [3]: 117 % of control
T/C [5]: 115 % of control

Cc1c2oc3c(C)ccc(C(=O)NC4C(=O)NC(C(C)C)C(=O)N(C)CC(=O)N(C)CC(=O)N(C)C(C(C)C)C(=O)OC4C)c3nc-2c(C(=O)NC2C(=O)NC(C(C)C)C(=O)N(C)CC(=O)N(C)CC(=O)N(C)C(C(C)C)C(=O)OC2C)c(N)c1=O (centres undefined) (I: TV[Sar][Sar][NMeV] / II: TV[Sar][Sar][NMeV]; ester I:1-I:C, II:1-II:C; linker I:N-II:N via Actinocin(9to1); configuration not given here)
T/C (dose: 125.0 micrograms/kg/injection, schedule: Q01DX009 (ip), vehicle: saline + alcohol): 190 % of control
T/C (dose: 250.0 micrograms/kg/injection, schedule: Q01DX009 (ip), vehicle: saline + alcohol): 233 % of control
T/C (dose: 500.0 micrograms/kg/injection, schedule: Q01DX009 (ip), vehicle: saline + alcohol): 239 % of control
T/C (dose: 750.0 micrograms/kg/injection, schedule: Q04DX003 (ip), vehicle: saline + alcohol): 218 % of control
T/C (dose: 1500.0 micrograms/kg/injection, schedule: Q04DX003 (ip), vehicle: saline + alcohol): 239 % of control and 166 % of control
T/C (dose: 3000.0 micrograms/kg/injection, schedule: Q04DX003 (ip), vehicle: saline + alcohol): 175 % of control

Cc1n(C(C)C)c2c([n+]1C)C(=O)c1ccccc1C2=O
T/C (dose: 1.25 mg/kg/injection, schedule: Q01DX009 (ip), vehicle: alcohol): 118 % of control
T/C (dose: 2.5 mg/kg/injection, schedule: Q01DX009 (ip), vehicle: alcohol): 122 % of control
